The results in this text go back to PMC5787524, “Discovery of a FLT3 inhibitor LDD1937 as an anti-leukemic agent for acute myeloid leukemia” (Oncotarget, 2017).

Each structure is given as a SMILES string.

In one series the test system is Jurkat cells. The experiment in a line: Cell viability / growth inhibition (EZ-Cytox), Jurkat. In kind it is cell-based. The note with it: Homo sapiens, Table 2, 72 h. As for the experimental part:
MV-4-11 human acute myeloid leukemia cells were purchased from the American Type Culture Collection (ATCC, Rockville, MD, USA, CRL-9591), and the cells were cultured in IMDM medium (Sigma Co., St. Louis, MO, USA) supplemented with 10% fetal bovine serum, 1% penicillin/streptomycin and 4 mM L-glutamine (Life Technology, Grand Island, NY). Jurkat (human acute T lymphocytic leukemia, ATCC TIB-152) and K562 (human chronic myelogenous leukemia, ATCC CCL-243) cells were cultured in RPMI-1640 (Sigma Co.), and MCF7 (human breast adenocarcinoma, ATCC HTB-22) and PC-3 (human prostate adenocarcinoma, ATCC CRL-1435) cells were cultured in DMEM (Sigma Co.) medium supplemented with 10% fetal bovine serum and 1% penicillin/streptomycin. The cultured cells were incubated at 37°C with 5% CO2. Cell viability was assessed with a tetrazolium-based assay using the EZ-Cytox Cell Viability Assay kit (DaeilLab, Korea). Briefly, 2,000 ∼ 15,000 cells were plated in 96-well flat bottom plates in 100 µl of medium. The next day, the cells were treated with compounds along with dimethyl sulfoxide (DMSO, Fisher, Waltham, MA, USA) as a negative control. […] After incubation, the optical density (OD) was measured at a wavelength of 450 nm with a Victor multilabel reader (Perkin Elmer, Waltham, MA, USA). The IC50 was calculated with nonlinear regression using Prism version 5.01 (GraphPad, La Jolla, CA, USA).

Series [1] relates to MV-4-11 cells. Put plainly: Annexin V / propidium iodide flow cytometry (apoptosis). As to conditions: 10 nM, 24 h. In kind it is cell-based, human. Here is the method:
For Annexin V staining, the Alexa Flour® 488 Annexin V/ Dead Cell Apoptosis Kit (ThermoFisher, USA) was used. Cells were seeded in 6-well plates (1 × 10^6 cells per well) and treated with compounds for 24 h. The cells were stained with Annexin V and propidium iodide (PI) according to the manufacturer’s instruction. Then, the cells were subjected to flow cytometry using an Accuri C6 flow cytometer (BD Bio-sciences, San Jose, CA, USA). The data were analyzed with the BD Accuri C6 software.
On the technique in general: A flow cytometer gives signals particle by particle.

The target of a further series is T1, JAK3 (Homo sapiens, UniProt P52333).
T1 sequence (P52333 1-1124): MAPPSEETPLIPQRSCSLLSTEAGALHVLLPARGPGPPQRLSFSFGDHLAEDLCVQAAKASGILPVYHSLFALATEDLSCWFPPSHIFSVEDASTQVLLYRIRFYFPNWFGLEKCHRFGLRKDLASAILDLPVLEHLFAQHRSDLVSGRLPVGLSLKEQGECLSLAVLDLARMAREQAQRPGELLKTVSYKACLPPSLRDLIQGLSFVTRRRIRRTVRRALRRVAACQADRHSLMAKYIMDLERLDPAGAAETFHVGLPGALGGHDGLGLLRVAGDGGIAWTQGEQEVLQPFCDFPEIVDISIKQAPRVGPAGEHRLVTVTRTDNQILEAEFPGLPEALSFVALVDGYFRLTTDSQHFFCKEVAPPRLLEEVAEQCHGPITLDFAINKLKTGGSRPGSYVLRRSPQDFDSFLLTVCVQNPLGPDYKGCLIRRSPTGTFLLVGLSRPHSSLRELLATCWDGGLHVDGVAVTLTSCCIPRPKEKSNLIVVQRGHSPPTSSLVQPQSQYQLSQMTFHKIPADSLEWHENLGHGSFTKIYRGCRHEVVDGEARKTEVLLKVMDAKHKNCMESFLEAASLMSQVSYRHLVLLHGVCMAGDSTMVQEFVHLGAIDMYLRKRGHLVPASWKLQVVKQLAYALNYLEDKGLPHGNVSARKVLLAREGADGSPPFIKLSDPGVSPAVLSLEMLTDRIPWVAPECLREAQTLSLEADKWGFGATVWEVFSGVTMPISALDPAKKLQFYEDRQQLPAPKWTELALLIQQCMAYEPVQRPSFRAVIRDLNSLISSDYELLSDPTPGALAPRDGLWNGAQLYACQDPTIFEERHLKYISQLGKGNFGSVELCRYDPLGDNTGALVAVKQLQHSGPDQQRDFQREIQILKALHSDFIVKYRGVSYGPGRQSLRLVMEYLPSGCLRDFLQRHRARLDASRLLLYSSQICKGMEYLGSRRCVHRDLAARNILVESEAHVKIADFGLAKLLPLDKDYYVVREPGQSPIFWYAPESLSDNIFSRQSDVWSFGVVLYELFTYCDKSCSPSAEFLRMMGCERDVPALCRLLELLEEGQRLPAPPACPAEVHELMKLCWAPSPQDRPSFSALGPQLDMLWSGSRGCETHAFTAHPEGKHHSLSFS
Put plainly: In vitro JAK3 kinase assay (HTRF). The format is biochemical. The note with it: mean ± S.D. As for the experimental part: (§1) The inhibition of the FLT3 kinase activity was measured with homogeneous, time-resolved fluorescence (HTRF) assays. Recombinant proteins containing the FLT3 kinase domain were purchased from Carna biosciences (Japan). Optimal enzyme, ATP, and substrate concentrations were established with the HTRF KinEASE kit (Cisbio, France) according to the manufacturer’s instructions. The FLT3 enzymes were mixed with serially diluted compounds and peptide substrates in a kinase reaction buffer (50 mM HEPES (pH 7.0), 500 μM ATP, 0.1 mM sodium orthovanadate, 5 mM MgCl2, 1 mM DTT, 0.01% bovine serum albumin (BSA), and 0.02% NaN3). After the addition of the reagents for detection, the TR-FRET signal was measured with a Victor multilabel reader (Perkin Elmer, Waltham, MA, USA). The IC50 was calculated with nonlinear regression using Prism version 5.01 (GraphPad). JAK2, JAK3, cMET, and RET in vitro kinase assays were also carried out using the HTRF assay kit.

A further series concerns leukemic cells. Put plainly: Differentiation of leukemic cells (Wright-Giemsa staining). The format is cell-based. The note with it: data not shown.
Series [2] is described as follows: Parallel artificial membrane permeability (PAMPA) assay. The format is in vitro ADME. (In general: PAMPA measures passive passage across an artificial lipid membrane.)
In a further series the target is JAK2 (Homo sapiens, UniProt O60674). The experiment in a line: In vitro JAK2 kinase assay (HTRF). As to conditions: mean ± S.D. In kind it is biochemical. Here is the method:
as §1
For orientation: In TR-FRET formats the signal depends on donor and acceptor labels being close together.

The test system of another series is cellular senescence. Put plainly: Senescence-associated β-galactosidase assay (SA-β-gal). In kind it is cell-based. The note with it: data not shown.
Series [3] relates to MV-4-11 cells. The experiment in a line: Cell viability / growth inhibition (EZ-Cytox), MV-4-11. In kind it is cell-based, human. As to conditions: for GI50: Homo sapiens, MV4-11, 72 h. As for the experimental part:
The cultured cells were incubated at 37°C with 5% CO2. Cell viability was assessed with a tetrazolium-based assay using the EZ-Cytox Cell Viability Assay kit (DaeilLab, Korea). Briefly, 2,000 ∼ 15,000 cells were plated in 96-well flat bottom plates in 100 µl of medium. The next day, the cells were treated with compounds along with dimethyl sulfoxide (DMSO, Fisher, Waltham, MA, USA) as a negative control. […] After incubation, the optical density (OD) was measured at a wavelength of 450 nm with a Victor multilabel reader (Perkin Elmer, Waltham, MA, USA).

JAK2, sequence (O60674 whole entry, species assumed): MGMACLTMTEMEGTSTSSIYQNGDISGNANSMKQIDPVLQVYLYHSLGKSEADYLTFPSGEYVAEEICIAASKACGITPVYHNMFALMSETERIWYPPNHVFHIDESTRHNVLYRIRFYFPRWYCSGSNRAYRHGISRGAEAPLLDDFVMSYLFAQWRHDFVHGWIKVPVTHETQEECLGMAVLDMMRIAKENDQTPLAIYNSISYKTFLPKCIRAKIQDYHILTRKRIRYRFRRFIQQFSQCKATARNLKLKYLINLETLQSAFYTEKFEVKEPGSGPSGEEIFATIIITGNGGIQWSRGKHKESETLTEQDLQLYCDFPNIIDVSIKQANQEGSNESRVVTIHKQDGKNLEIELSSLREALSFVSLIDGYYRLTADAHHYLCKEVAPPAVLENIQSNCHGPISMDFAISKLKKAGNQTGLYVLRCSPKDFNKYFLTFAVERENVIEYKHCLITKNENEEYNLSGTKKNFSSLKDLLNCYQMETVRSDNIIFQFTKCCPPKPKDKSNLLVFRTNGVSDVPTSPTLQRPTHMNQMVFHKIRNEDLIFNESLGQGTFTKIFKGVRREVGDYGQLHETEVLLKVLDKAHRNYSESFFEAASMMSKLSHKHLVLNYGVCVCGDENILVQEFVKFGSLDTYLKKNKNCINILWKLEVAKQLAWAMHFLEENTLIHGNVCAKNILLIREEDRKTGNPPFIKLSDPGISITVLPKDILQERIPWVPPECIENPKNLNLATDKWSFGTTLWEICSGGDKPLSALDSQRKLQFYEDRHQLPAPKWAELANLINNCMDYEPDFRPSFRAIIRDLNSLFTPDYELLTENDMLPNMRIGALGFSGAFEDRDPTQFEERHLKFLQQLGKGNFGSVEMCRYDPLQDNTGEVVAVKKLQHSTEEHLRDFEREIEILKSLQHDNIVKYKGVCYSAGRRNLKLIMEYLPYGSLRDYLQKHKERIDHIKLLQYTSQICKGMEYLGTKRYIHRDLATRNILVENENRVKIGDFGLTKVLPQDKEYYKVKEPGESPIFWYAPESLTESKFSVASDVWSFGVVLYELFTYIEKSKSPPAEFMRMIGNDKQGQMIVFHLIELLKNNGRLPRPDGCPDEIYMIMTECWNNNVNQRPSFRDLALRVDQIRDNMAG

Regarding `COC(=O)c1ccc2c(c1)/C(=C1/Nc3ccccc3/C1=N\OCCN1CCNCC1)C(=O)N2.Cl.Cl` [LDD1937, methyl (2Z,3E)-2′-oxo-3-((2-(piperazin-1-yl)ethoxy)imino)-[2,3′-biindolinylidene]-5′-carboxylate dihydrochloride], the GI50 was 1440 ± 290 nM in the series with Jurkat cells; 1 ± 0.15 nM with MV-4-11 cells [3] (72 h, called IC50 in supplementary text); 1.2 ± 0.2 nM with MV-4-11 cells [3] (Table 2, 72 h, mean ± S.D.). Moreover, the “cells in upper right quadrant (Annexin V+ and PI+, late apoptotic)” value in the series on MV-4-11 cells [1] was found to be 24.8%. Also, the IC50 against JAK3 worked out at 690 ± 59.9 nM; against JAK2, 523 ± 72.7 nM. In the series with leukemic cells, the “differentiated cells (Wright-Giemsa staining)” value is listed as “differentiated cells were not observed”. The PAMPA assay result in series [2] was “–4.49 ± 0.140”. Further, the “PAMPA level of permeability” value in series [2] was “medium level of permeability”. Moreover, the “SA-β-gal (cellular senescence)” value in the series on cellular senescence was “did not change”. Moreover, the “enhancement of MV-4-11 activity compared to the initial compound 1” value in the series on MV-4-11 cells [3] is 40 fold.

As usually defined, the GI50 is the concentration giving 50% growth inhibition. A lower GI50 goes with more potent growth inhibition. In general, IC50 refers to the concentration that gives 50% inhibition. Read a high IC50 as a need for much substance.
